Measured values as given in US12678546B2, “Systems, methods, and apparatus for modeling and optimizing dialysis effects” (INNCELEREX, priority 2022, dated 2026).
Read-outs that look alike come from different tables or passages of the source.

Experiments:
[1] = Ex-vivo simulated dialysis treatment (CRRT mimic) of bovine plasma containing creatinine; assay type: in vitro ADME; settings: for Reduction in creatinine on the arterial side / Reduction in creatinine on the venous side / Total amount of creatinine in effluent, of total amount in the reservoir at time zero: at 60 minutes; for Change in creatinine concentration, venous vs. arterial side, mean over timepoints: the values are: percent change venous vs arterial; for C0 at 0 min: bovine, prior to starting ex-vivo dialysis, read-out: Starting creatinine concentration at time zero
Source text: FIG. 1 illustrates an exemplary system 100 and configuration for a simulated treatment on a drug or analyte of interest. The exemplary system 100 of FIG. 1 was designed and built to mimic Continuous Renal Replacement Therapy (CRRT). CRRT is a method of slower, continuous dialysis to allow solute and fluid homeostasis. CRRT […] intermittent hemodialysis and peritoneal dialysis. It is typically performed through pump-driven venovenous extracorporeal circuits and acts as renal support through blood purification to allow solute and fluid homeostasis. CRRT is often chosen for renal replacement in hemodynamically unstable patients, and it is often employed in the intensive care unit. With a slower rate of fluid removal, CRRT theoretically causes less hypotension than other dialysis techniques. Another advantage of CRRT for these patients is that they often require a large volume of fluid administration, including medications and parenteral nutrition, and CRRT can prevent an overloaded state.
The blood or plasma is introduced to the blood side 156 of the filter. Dialysate fluid that has no drug (nor analyte of interest) is pumped through the other side 157 of the filter. This process creates a movement of the analyte of interest from the blood side 156 of the filter to the dialysate side 157 and ultimately excretion into an effluent container 107 (simulating drug removal). The pumps 110, 111, 112, 113 are set at typical clinical levels (e.g., 300-500 mL/min) for pump speed and are optimized based on performance criteria (and by trial and error) for the specific treatment simulation.
In some embodiments, the system 100 is run for 1 hour, and during this time samples (500 μL each) are taken at the respective sample points 103, 104, 105, 106 at time 0, 10, 20, 30, 40 and 60 minutes after starting the pumps 110, 111, 112, 113. These samples are assayed for the analyte of interest. These are the numerical treatment simulation results that are used in silico (described below) to scale and to predict human dialysis situations (i.e., create a virtual patient) and also to extend the predictions to many other dialysis settings (e.g., different filter types, flow rates, type of fluids pumped in, etc.) that are used in different clinical conditions.
As shown in an exemplary algorithm and schematic of the invention in FIGS. 3A-3C, the treatment simulation and in-silico modeling, simulations, and extrapolation are used to determine the effects of dialysis on a drug or analyte of interest. In blocks A and B of FIG. 3A, bovine or human plasma or blood is spiked with a drug or an exogenous analyte existing in plasma or blood. In block C, pumps, tubing, flow rates, filters, temperature, pH, dialysis or replacement solutions and apparatus are configured to mimic a type of CRRT (Continuous Renal Replacement Therapy) or IHD (Intermittent Hemodialysis). In block D, the system is run for approximately 1-2 hours. In block E, multiple samples from different ports 103, 104, 105, 106 (arterial, venous, effluent, and blood/plasma reservoir) are taken during the treatment simulation and the sampling information is recorded. In block F, the samples for the drug/analyte collected are assayed. In block G, the amount of the drug that is removed by the treatment simulation is determined, and rate and ratio parameters for the drug removal from plasma or blood are calculated.
One analyte was creatinine used as control, and the other was drug X (a drug under development). The Cybernetic Dialysis™ system 200 measures how much of drug X and how much creatinine is removed by dialysis and (referring back to FIG. 1) includes water bath 101 with shaking tray with thermal control set at 37° C. […]

[2] = as above; assay type: in vitro ADME; settings: HF1400 membrane; 5 min after start of ex-vivo dialysis
[3] = AN69 M150 membrane, 10 min after start of ex-vivo dialysis
[4] = AN69 M150 membrane, 20 min after start of ex-vivo dialysis
[5] = AN69 M150 membrane, 30 min after start of ex-vivo dialysis
[6] = AN69 M150 membrane, 40 min after start of ex-vivo dialysis
[7] = AN69 M150 membrane, 60 min after start of ex-vivo dialysis
[8] = HF1400 membrane, 10 min after start of ex-vivo dialysis
[9] = HF1400 membrane, 20 min after start of ex-vivo dialysis
[10] = HF1400 membrane, 30 min after start of ex-vivo dialysis
[11] = HF1400 membrane, 40 min after start of ex-vivo dialysis
[12] = HF1400 membrane, 60 min after start of ex-vivo dialysis

Creatinine concentration, Arterial [1, 3]: 7.088 µg/mL | Creatinine concentration, Venous [1, 3]: 5.545 µg/mL | Creatinine concentration, Arterial [1, 4]: 6.53 µg/mL | Creatinine concentration, Venous [1, 4]: 5.216 µg/mL | Creatinine concentration, Arterial [1, 5]: 5.191 µg/mL | Creatinine concentration, Venous [1, 5]: 4.353 µg/mL | Creatinine concentration, Arterial [1, 6]: 4.145 µg/mL | Creatinine concentration, Venous [1, 6]: 3.706 µg/mL | Creatinine concentration, Arterial [1, 7]: 3.444 µg/mL | Creatinine concentration, Venous [1, 7]: 2.909 µg/mL | Reduction in creatinine on the arterial side ([1]; AN69 M150 membrane): 60% | Creatinine concentration, Arterial ([1]; AN69 M150 membrane, time point 0 min, bovine plasma): 8.581 µg/mL | Creatinine concentration, Arterial [1, 8]: 8.306 µg/mL | Creatinine concentration, Venous [1, 8]: 6.355 µg/mL | Creatinine concentration, Arterial [1, 9]: 6.174 µg/mL | Creatinine concentration, Venous [1, 9]: 5.052 µg/mL | Creatinine concentration, Arterial [1, 10]: 5.857 µg/mL | Creatinine concentration, Venous [1, 10]: 4.214 µg/mL | Creatinine concentration, Arterial [1, 11]: 5.261 µg/mL | Creatinine concentration, Venous [1, 11]: 3.782 µg/mL | Creatinine concentration, Arterial [1, 12]: 3.82 µg/mL | Creatinine concentration, Venous [1, 12]: 3.18 µg/mL | Change in creatinine concentration, venous vs. arterial side, mean over timepoints ([1]; HF1400 membrane, FIG. 7): -25.4% | Reduction in creatinine on the arterial side ([1]; HF1400 membrane): 56% | Reduction in creatinine on the venous side ([1]; HF1400 membrane): 63% | Total amount of creatinine in effluent, of total amount in the reservoir at time zero ([1]; HF1400 membrane): 66.3% | Creatinine concentration, Arterial ([1]; HF1400 membrane, time point 0 min, bovine plasma): 8.581 µg/mL | Change in creatinine concentration, venous vs. arterial side, mean over timepoints ([1]; M150 AN69 membrane, FIG. 5): -16.8% | Reduction in creatinine on the venous side ([1]; M150 AN69 membrane): 66% | Total amount of creatinine in effluent, of total amount in the reservoir at time zero ([1]; M150 AN69 membrane): 68.0% | Total amount of creatinine (at time zero) remaining in the membrane cartridge and associated tubing ([1]; both membrane types (M150 AN69 and HF1400)): about 5% | C0 at 0 min ([1]; AN69 M150 membrane): 8370 ng/mL | C0 at 0 min ([1]; HF1400 membrane): 8580 ng/mL | Creatinine concentration, Arterial [2]: 8.675 µg/mL | Creatinine concentration, Venous [2]: 5.41 µg/mL
Compound: CN1CC(=O)NC1=N [creatinine]
